# Read-outs that look alike come from different tables or passages of the source.
# Columns and labels:
# Assay in all cases: Bacterial susceptibility testing, MIC by broth microdilution (CLSI)
# Format in all cases: cell-based
# [1] = test system: E. coli ATCC25922; details: Escherichia coli
# Protocol: (§1) Minimal inhibitory concentrations (MIC) were determined by the broth microdilution method in accordance with the Clinical and Laboratory Standards Institute (CLSI) guidelines. In brief, organism suspensions were adjusted to a final inoculum between 3×10^5 and 7×10^5 colony-forming units (CFU)/mL. Drug dilutions and inocula were made in sterile, cation adjusted Mueller-Hinton Broth (Beckton Dickinson). In wells, an inoculum volume of 100 μL was mixed to 2 μL of DMSO with 2-fold serial dilutions of drug. All inoculated microdilution trays were incubated in ambient air at 35° C. for 18-24 h. Following incubation, the lowest concentration of the drug that prevented visible growth (OD600 nm<0.05) was recorded as the MIC. Performance of the assay was monitored by the use of laboratory quality-control strains and compounds with defined MIC spectrum, in accordance with CLSI guidelines.
# [2] = test system: K. pneumoniae ATCC13883; details: Klebsiella pneumoniae
# Protocol: as §1
# [3] = test system: P. aeruginosa 209 PAO1; details: Pseudomonas aeruginosa
# Protocol: as §1
# [4] = test system: P. aeruginosa ATCC27835; details: Pseudomonas aeruginosa
# Protocol: as §1
# [5] = ATCC25922, broth microdilution, 35° C., 18-24 h, read-out: MIC E. coli ATCC25922
# [6] = ATCC13883, broth microdilution, 35° C., 18-24 h, read-out: MIC K. pneumoniae ATCC13883
# [7] = PAO1, broth microdilution, 35° C., 18-24 h, read-out: MIC P. aeruginosa 209 PAO1
# [8] = ATCC27835, broth microdilution, 35° C., 18-24 h, read-out: MIC P. aeruginosa ATCC27835
# [9] = ATCC25922, read-out: MIC E. coli ATCC25922
# [10] = ATCC13883, read-out: MIC K. pneumoniae ATCC13883
# [11] = PAO1, read-out: MIC P. aeruginosa 209 PAO1
# [12] = ATCC27835, read-out: MIC P. aeruginosa ATCC27835
SMILES,"MIC [1, 5] [µg/mL]","MIC [2, 6] [µg/mL]","MIC [3, 7] [µg/mL]","MIC [4, 8] [µg/mL]","MIC [1, 9] [µg/mL]","MIC [2, 10] [µg/mL]","MIC [3, 11] [µg/mL]","MIC [4, 12] [µg/mL]"
"C[C@H](O)c1nccn1[C@@H](/C=C/c1ccc(-c2ccc(C3CC(C(=O)NCCO)C3)cc2)cc1)CO (stereo partly drawn) [Compound 49, 3-(4′-((S,E)-4-hydroxy-3-(2-((S)-1-hydroxyethyl)-1H-imidazol-1-yl)but-1-en-1-yl)-[1,1′-biphenyl]-4-yl)-N-(2-hydroxyethyl)cyclobutane-1-carboxamide]",4,4,2,2,,,,
"C[C@H](O)c1nccn1[C@@H](/C=C/c1ccc(-c2ccc(C3CC(C(=O)NCC#N)C3)cc2)cc1)CO (stereo partly drawn) [Compound 50, N-(cyanomethyl)-3-(4′-((S,E)-4-hydroxy-3-(2-((S)-1-hydroxyethyl)-1H-imidazol-1-yl)but-1-en-1-yl)-[1,1′-biphenyl]-4-yl)cyclobutane-1-carboxamide]",0.5,1,2,2,,,,
"C[C@H](O)c1nccn1[C@@H](/C=C/c1ccc(-c2ccc(C3CC(C(=O)O)C3)cc2)cc1)CO (stereo partly drawn) [Compound 51, 3-(4′-((S,E)-4-hydroxy-3-(2-((S)-1-hydroxyethyl)-1H-imidazol-1-yl)but-1-en-1-yl)-[1,1′-biphenyl]-4-yl)cyclobutane-1-carboxylic acid]",4,8,4,4,,,,
"C[C@H](O)c1nccn1[C@@H](/C=C/c1ccc(-c2ccc(C3CC(C(=O)NCC(O)CO)C3)cc2)cc1)CO (stereo partly drawn) [Compound 52, N-(2,3-dihydroxypropyl)-3-(4′-((S,E)-4-hydroxy-3-(2-((S)-1-hydroxyethyl)-1H-imidazol-1-yl)but-1-en-1-yl)-[1,1′-biphenyl]-4-yl)cyclobutane-1-carboxamide]",4,16,4,4,,,,
"C[C@H](O)c1nccn1[C@@H](/C=C/c1ccc(-c2ccc(C3CC(C(=O)NCc4ncon4)C3)cc2)cc1)CO (stereo partly drawn) [Compound 53, N-((1,2,4-oxadiazol-3-yl)methyl)-3-(4′-((S,E)-4-hydroxy-3-(2-((S)-1-hydroxyethyl)-1H-imidazol-1-yl)but-1-en-1-yl)-[1,1′-biphenyl]-4-yl)cyclobutane-1-carboxamide]",0.5,1,2,4,,,,
"C[C@H](O)c1nccn1[C@@H](/C=C/c1ccc(-c2ccc(C3CC(C(=O)NCc4cocn4)C3)cc2)cc1)CO (stereo partly drawn) [Compound 54, 3-(4′-((S,E)-4-hydroxy-3-(2-((S)-1-hydroxyethyl)-1H-imidazol-1-yl)but-1-en-1-yl)-[1,1′-biphenyl]-4-yl)-N-(oxazol-4-ylmethyl)cyclobutane-1-carboxamide]",0.5,1,2,4,,,,
"C[C@H](O)c1nccn1[C@@H](/C=C/c1ccc(-c2ccc(C3CC(C(=O)NCc4c[nH]cn4)C3)cc2)cc1)CO (stereo partly drawn) [Compound 55, N-((1H-imidazol-4-yl)methyl)-3-(4′-((S,E)-4-hydroxy-3-(2-((S)-1-hydroxyethyl)-1H-imidazol-1-yl)but-1-en-1-yl)-[1,1′-biphenyl]-4-yl)cyclobutane-1-carboxamide]",0.5,2,2,2,,,,
"C[C@H](O)c1nccn1[C@@H](/C=C/c1ccc(-c2ccc(C3CC(CNCC#N)C3)cc2)cc1)CO (stereo partly drawn) [Compound 56, 2-(((3-(4′-((S,E)-4-hydroxy-3-(2-((S)-1-hydroxyethyl)-1H-imidazol-1-yl)but-1-en-1-yl)-[1,1′-biphenyl]-4-yl)cyclobutyl)methyl)amino) acetonitrile]",0.25,0.5,2,4,,,,
"C[C@H](O)c1nccn1[C@@H](/C=C/c1ccc(-c2ccc(C3CC(CNCc4noc(C(N)=O)n4)C3)cc2)cc1)CO (stereo partly drawn) [Compound 57, 3-((((3-(4′-((S,E)-4-hydroxy-3-(2-((S)-1-hydroxyethyl)-1H-imidazol-1-yl)but-1-en-1-yl)-[1,1′-biphenyl]-4-yl)cyclobutyl)methyl)amino)methyl)-1,2,4-oxadiazole-5-carboxamide]",0.25,1,4,4,,,,
"C[C@H](O)c1nccn1[C@@H](/C=C/c1ccc(-c2ccc(C3CC(CN4CC(S(C)(=O)=O)C4)C3)cc2)cc1)CO (stereo partly drawn) [Compound 58, (S,E)-2-(2-((S)-1-hydroxyethyl)-1H-imidazol-1-yl)-4-(4′-(3-((3-(methylsulfonyl)azetidin-1-yl)methyl)cyclobutyl)-[1,1′-biphenyl]-4-yl)but-3-en-1-ol]",1,2,4,8,,,,
"C[C@H](O)c1nccn1[C@@H](/C=C/c1ccc(-c2ccc(C3CC(CNC(C#N)CO)C3)cc2)cc1)CO (stereo partly drawn) [Compound 59, 3-hydroxy-2-(((3-(4′-((S,E)-4-hydroxy-3-(2-((S)-1-hydroxyethyl)-1H-imidazol-1-yl)but-1-en-1-yl)-[1,1′-biphenyl]-4-yl)cyclobutyl)methyl)amino)propane nitrile]",2,4,2,4,,,,
"C[C@H](O)c1nccn1[C@@H](/C=C/c1ccc(-c2ccc(C3CC(CNCC(O)CO)C3)cc2)cc1)CO (stereo partly drawn) [Compound 60, 3-(((3-(4′-((S,E)-4-hydroxy-3-(2-((S)-1-hydroxyethyl)-1H-imidazol-1-yl)but-1-en-1-yl)-[1,1′-biphenyl]-4-yl)cyclobutyl)methyl)amino) propane-1,2-diol]",8,16,4,4,,,,
"C[C@H](O)c1nccn1[C@@H](/C=C/c1ccc(-c2ccc(C3CC(CNCCO)C3)cc2)cc1)CO (stereo partly drawn) [Compound 61, (S,E)-2-(2-((S)-1-hydroxyethyl)-1H-imidazol-1-yl)-4-(4′-(3-(((2-hydroxyethyl)amino)methyl)cyclobutyl)-[1,1′-biphenyl]-4-yl) but-3-en-1-ol]",2,8,4,4,,,,
"C[C@H](O)c1nccn1[C@@H](/C=C/c1ccc(-c2ccc([C@H]3C[C@H](NS(C)(=O)=O)C3)cc2)cc1)CO [Compound 62, N-((1S,3r)-3-(4′-((S,E)-4-hydroxy-3-(2-((S)-1-hydroxyethyl)-1H-imidazol-1-yl)but-1-en-1-yl)-[1,1′-biphenyl]-4-yl)cyclobutyl)methanesulfonamide]",,,,,1,0.5,1,2
"C[C@H](O)c1nccn1[C@@H](/C=C/c1ccc(-c2ccc([C@H]3C[C@H](NC(=O)CS(C)(=O)=O)C3)cc2)cc1)CO [Compound 63, N-((1S,3r)-3-(4′-((S,E)-4-hydroxy-3-(2-((S)-1-hydroxyethyl)-1H-imidazol-1-yl)but-1-en-1-yl)-[1,1′-biphenyl]-4-yl)cyclobutyl)-2-(methylsulfonyl)acetamide]",,,,,2,4,2,4
"C[C@H](O)c1nccn1[C@@H](/C=C/c1ccc(-c2ccc([C@H]3C[C@H](NC(=O)CO)C3)cc2)cc1)CO [Compound 64, 2-hydroxy-N-((1S,3r)-3-(4′-((S,E)-4-hydroxy-3-(2-((S)-1-hydroxyethyl)-1H-imidazol-1-yl)but-1-en-1-yl)-[1,1′-biphenyl]-4-yl)cyclobutyl)acetamide]",,,,,1,2,1,2
"C[C@H](O)c1nccn1[C@@H](/C=C/c1ccc(-c2ccc([C@H]3C[C@H](NC(=O)CC#N)C3)cc2)cc1)CO [Compound 65, 2-cyano-N-((1S,3r)-3-(4′-((S,E)-4-hydroxy-3-(2-((S)-1-hydroxyethyl)-1H-imidazol-1-yl)but-1-en-1-yl)-[1,1′-biphenyl]-4-yl)cyclobutyl)acetamide]",,,,,0.5,1,2,2
"C[C@H](O)c1nccn1[C@@H](/C=C/c1ccc(-c2ccc([C@H]3C[C@H](NC(=O)CN(C)C)C3)cc2)cc1)CO [Compound 66, 2-(dimethylamino)-N-((1S,3r)-3-(4′-((S,E)-4-hydroxy-3-(2-((S)-1-hydroxyethyl)-1H-imidazol-1-yl)but-1-en-1-yl)-[1,1′-biphenyl]-4-yl)cyclobutyl)acetamide]",,,,,4,8,4,4
"COC(=O)C1CC(c2ccc(-c3ccc(/C=C/[C@@H](CO)n4ccnc4[C@H](C)O)cc3)cc2)C1 (stereo partly drawn) [Compound 67, methyl 3-(4′-((S,E)-4-hydroxy-3-(2-((S)-1-hydroxyethyl)-1H-imidazol-1-yl)but-1-en-1-yl)-[1,1′-biphenyl]-4-yl)cyclobutane-1-carboxylate]",0.5,1,2,2,,,,

# Source: patent publication US20240150298A1, “ANTIBACTERIAL COMPOUNDS” (Blacksmith Medicines, Inc., priority 2021, published 2024)
